SMILES strings stand for the structures.

This experiment has as its system PGE2. As to the kind of experiment: Inhibition of PGE2 release in LPS-stimulated RAW 264.7 cells. Format: cell-based. The note with it: Mus musculus, RAW264.7; pretreated 2 hours, 1 μg/mL LPS 20-24 hours. The procedure:
RAW 264.7 cells were seeded at 4×10^4 cells per well in complete growth medium in 96 well white TC plates with clear bottoms one day prior to the assay. The next day the cells were washed once and 100 μL fresh growth media was added. Cells were pretreated with 0.5 μL from a 6 point 200× dilution series of the test compounds in DMSO for 2 hours. Following pretreatment with the drugs, the inflammatory response was induced by adding 5 μL of a 20 μg/mL solution of LPS (Sigma). The cells were incubated in the presence of the drugs and 1 μg/mL LPS for another 20-24 hours. Typically after treatment the total DMSO was […] of the culture volume and the final concentrations of the compounds were approximately: 40, 20, 10, 1, 0.2 and 0 μM depending on the MW of each compound. Modified dilution series were prepared as needed to get adequate dose response curves without changing the % DMSO. Samples were run in duplicate or triplicate and included DMSO treated control wells with and without LPS stimulation. Drugs with a known activity such as Parthenolide or DHMEQ were run as experimental controls. After 20-24 hours LPS activation, the media supernatant was collected from the cells and replaced with fresh media. The supernatant samples were cleared by centrifugation at 1,000×g for 5 minutes, transferred to fresh storage plates, and stored frozen at −30° C.
After determining the appropriate supernatant dilutions experimentally, PGE2 levels in the supernatants were quantified using Parameter™ PGE2 Immunoassay (R&D Systems) according to the manufacturer's protocol. […] Absorbance at 450 nm with a reference at 595 nm was recorded using a Becton-Dickinson DTX 880 Multimode Detector.
The concentration of PGE2 in the unknown samples was determined from a curve-fit of the PGE2 standard absorbance data and multiplying by the dilution factor. […] Inhibition of the amount of PGE2 released in the drug treated wells was calculated relative to the maximum activation in the DMSO+LPS treated control wells (i.e., % inhibition=100−(drug+LPS treated)/(DMSO+LPS treated)). […]
As to `CC(C)CC(=O)Oc1ccccc1C(=O)NC1=CC(=O)C2OC2C1O` (racemic) [Example 1, (±)-2-(2-hydroxy-5-oxo-7-oxabicyclo[4.1.0]hept-3-en-3-ylcarbamoyl)phenyl 3-methylbutanoate], the EC50 (commonly the concentration that produces a half-maximal response) came to 1900 nM.

With `CC(C)OC(=O)Oc1ccccc1C(=O)NC1=CC(=O)C2OC2C1OC(=O)OC(C)C` (racemic) [Example 2, (±)-3-(2-isopropoxycarbonyloxy-benzoylamino)-5-oxo-7-oxa-bicyclo[4.1.0]hept-3-en-2-yl ester isopropyl ester], the EC50 is 2700 nM.

`O=C(CC1CCCCC1)Oc1ccccc1C(=O)NC1=CC(=O)C2OC2C1O` (racemic) [Example 3, (±)-2-(2-hydroxy-5-oxo-7-oxabicyclo[4.1.0]hept-3-en-3-ylcarbamoyl)phenyl 2-cyclohexylacetate]: the EC50 worked out at 1100 nM.

The values are drawn from patent US20120088827A1 (Profectus Biosciences, Inc., priority 2009, published 2012).
